Results: PubChem BioAssay AID256 (DTP/NCI, 2004)
Inconclusive results and toxic doses are left out. The calls were made as follows: active = survival T/C of 150% or more; inactive = T/C below 125% in these data.

System: CD2F1 mice, L1210 leukemia ip, survival T/C
Assay: NCI In Vivo Anticancer Drug Screen. Data for tumor model L1210 Leukemia (intraperitoneal) in CD2F1 (CDF1) mice
Details: endpoint: mean survival time, higher = longer survival
In short: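 Mice carrying a transplanted tumor received test compound or vehicle alone. The value is the measurement in the treated group divided by that in the vehicle-treated control group.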

[1] = dose: 100.0 mg/kg/injection, schedule: Q04DX003 (ip), vehicle: saline with Tween-80
[2] = dose: 200.0 mg/kg/injection, schedule: Q04DX003 (ip), vehicle: saline with Tween-80
[3] = dose: 400.0 mg/kg/injection, schedule: Q04DX003 (ip), vehicle: saline with Tween-80
[4] = dose: 100.0 mg/kg/injection, schedule: Q01DX001 (ip), vehicle: saline with Tween-80
[5] = dose: 100.0 mg/kg/injection, schedule: Q01DX001 (ip), vehicle: saline
[6] = dose: 200.0 mg/kg/injection, schedule: Q01DX001 (ip), vehicle: saline
[7] = dose: 200.0 mg/kg/injection, schedule: Q04DX003 (ip), vehicle: other
[8] = dose: 400.0 mg/kg/injection, schedule: Q04DX003 (ip), vehicle: other
[9] = dose: 100.0 mg/kg/injection, schedule: Q04DX002 (ip), vehicle: saline with Tween-80
[10] = dose: 200.0 mg/kg/injection, schedule: Q04DX002 (ip), vehicle: saline with Tween-80
[11] = dose: 50.0 mg/kg/injection, schedule: Q01DX009 (ip), vehicle: Klucel (hydroxypropylcellulose) (HPC)
[12] = dose: 100.0 mg/kg/injection, schedule: Q01DX009 (ip), vehicle: saline with Tween-80
[13] = dose: 200.0 mg/kg/injection, schedule: Q01DX009 (ip), vehicle: saline with Tween-80
[14] = dose: 400.0 mg/kg/injection, schedule: Q01DX009 (ip), vehicle: saline with Tween-80
[15] = dose: 400.0 mg/kg/injection, schedule: Q01DX001 (ip), vehicle: saline
[16] = dose: 400.0 mg/kg/injection, schedule: Q01DX001 (ip), vehicle: saline with Tween-80

Measured: T/C

Nc1ncnc2c1[nH]c(=O)n2C1OC(CO)C2OC21 (stereo not drawn)
inactive: dose: 12.5 mg/kg/injection, schedule: Q01DX005 (ip), vehicle: distilled water + Tween-80 102 % of control | dose: 25.0 mg/kg/injection, schedule: Q01DX005 (ip), vehicle: distilled water + Tween-80 95 % of control | dose: 50.0 mg/kg/injection, schedule: Q01DX005 (ip), vehicle: distilled water + Tween-80 101 % of control | dose: 100.0 mg/kg/injection, schedule: Q01DX005 (ip), vehicle: distilled water + Tween-80 92 % of control | dose: 200.0 mg/kg/injection, schedule: Q01DX005 (ip), vehicle: distilled water + Tween-80 95 % of control

O=C(c1ccccc1)N(C(=O)c1ccccc1)c1cccc[n+]1[O-]
inactive: [1] 100 % of control | [2] 97 % of control | [3] 102 % of control

C1CCC(CCC2CCCC[N-]2)[N-]C1.[I][Zn][I] (stereo not drawn)
inactive: dose: 25.0 mg/kg/injection, schedule: Q01DX001 (ip), vehicle: saline with Tween-80 107 % of control | dose: 50.0 mg/kg/injection, schedule: Q01DX001 (ip), vehicle: saline with Tween-80 86 % of control | [4] 86 % of control | [5] 103 % of control | [6] 100 % of control

CCCNC(C)(C)C(SS)c1ccc(C(F)(F)F)cc1 (stereo not drawn)
inactive: [7] 100 % of control | [8] 90 % of control

c1ccc(N=Nc2n[nH]c3ccccc23)cc1
inactive: [1] 95 % of control | [2] 98 % of control | [3] 95 % of control

CNc1nc(N)[nH]c(=O)c1N=O
inactive: dose: 50.0 mg/kg/injection, schedule: Q04DX002 (ip), vehicle: saline with Tween-80 105 % of control | [9] 102 % of control | [10] 105 % of control

CC1OC(C)(C)OC1C(=O)O (stereo not drawn)
inactive: dose: 25.0 mg/kg/injection, schedule: Q01DX009 (ip), vehicle: Klucel (hydroxypropylcellulose) (HPC) 92 % of control | [11] 86 % of control

NC(=O)CC(N)C(=O)O.[Cl-].[Cl-].[Cl-].[Cl-].[Pt+2] (stereo not drawn)
inactive: dose: 0.78 mg/kg/injection, schedule: Q01DX009 (ip), vehicle: water 101 % of control | dose: 1.56 mg/kg/injection, schedule: Q01DX009 (ip), vehicle: water 95 % of control | dose: 3.13 mg/kg/injection, schedule: Q01DX009 (ip), vehicle: water 98 % of control | dose: 6.25 mg/kg/injection, schedule: Q01DX009 (ip), vehicle: water 90 % of control | dose: 12.5 mg/kg/injection, schedule: Q01DX009 (ip), vehicle: water 101 % of control

Cc1c2c(O)c(O)c(O)cc2c[n+]2ccccc12
inactive: dose: 50.0 mg/kg/injection, schedule: Q01DX009 (ip), vehicle: saline 101 % of control

CN(C)N=Nc1ccc([N+](=O)[O-])cc1
inactive: [11] 98 % of control | dose: 79.0 mg/kg/injection, schedule: Q01DX009 (ip), vehicle: Klucel (hydroxypropylcellulose) (HPC) 102 % of control | dose: 100.0 mg/kg/injection, schedule: Q01DX009 (ip), vehicle: Klucel (hydroxypropylcellulose) (HPC) 102 % of control | dose: 118.0 mg/kg/injection, schedule: Q01DX009 (ip), vehicle: Klucel (hydroxypropylcellulose) (HPC) 108 % of control | dose: 177.0 mg/kg/injection, schedule: Q01DX009 (ip), vehicle: Klucel (hydroxypropylcellulose) (HPC) 120 % of control | dose: 200.0 mg/kg/injection, schedule: Q01DX009 (ip), vehicle: Klucel (hydroxypropylcellulose) (HPC) 108 % of control

COC(=O)C(Br)C(Br)c1ccccc1 (stereo not drawn)
inactive: [12] 101 % of control | [1] 103 % of control | [13] 101 % of control | [2] 106 % of control | [14] 95 % of control | [3] 106 % of control

Cc1c(O)c(N=NC(N)=S)c2ccccc2c1O
inactive: [1] 100 % of control | [2] 102 % of control | [3] 100 % of control

O=c1[nH]c2ccccc2o1
inactive: dose: 12.5 mg/kg/injection, schedule: Q01DX009 (iv), vehicle: methylcellulose (MC) 95 % of control | dose: 25.0 mg/kg/injection, schedule: Q01DX009 (iv), vehicle: methylcellulose (MC) 90 % of control | dose: 50.0 mg/kg/injection, schedule: Q01DX009 (iv), vehicle: methylcellulose (MC) 94 % of control

O=C(/C=C\c1ccccc1)C(=O)/C=C/c1ccccc1
inactive: [1] 94 % of control | [2] 93 % of control | [3] 95 % of control

CCC1(CC)C(=O)C=CNC1=O
inactive: dose: 50.0 mg/kg/injection, schedule: Q01DX009 (ip), vehicle: saline with Tween-80 100 % of control | [12] 94 % of control | [13] 103 % of control

CC(C)C(C)c1ccccc1 (stereo not drawn)
inactive: [5] 100 % of control | [6] 100 % of control | [15] 98 % of control

CCOC(=O)C1OC1(C)c1ccc(Cl)cc1 (stereo not drawn)
inactive: dose: 100.0 mg/kg/injection, schedule: Q04DX003 (ip), vehicle: other 95 % of control | [7] 110 % of control | [8] 96 % of control

c1ccc(-c2ccc(-c3nnn4ccccc34)cc2)cc1
inactive: [5] 107 % of control | [6] 86 % of control | [15] 95 % of control

Nc1nc(=O)n(CCCOc2ccc(Cl)cc2)cc1-c1ccccc1
inactive: [4] 98 % of control | dose: 200.0 mg/kg/injection, schedule: Q01DX001 (ip), vehicle: saline with Tween-80 101 % of control | [16] 88 % of control

O=C(CCl)Nc1ccccc1Cl
inactive: dose: 100.0 mg/kg/injection, schedule: Q04DX003 (ip), vehicle: Klucel (hydroxypropylcellulose) (HPC) 97 % of control | dose: 200.0 mg/kg/injection, schedule: Q04DX003 (ip), vehicle: Klucel (hydroxypropylcellulose) (HPC) 103 % of control

CC(C(=O)c1ccccc1)C(c1ccccc1)N1CCCCC1 (stereo not drawn)
inactive: [4] 92 % of control | [12] 87 % of control | [13] 96 % of control | [16] 90 % of control | [14] 93 % of control

COc1ccc(NC(=O)Oc2ccc(Cl)cc2C)cc1
inactive: [9] 91 % of control | [10] 94 % of control | dose: 400.0 mg/kg/injection, schedule: Q04DX002 (ip), vehicle: saline with Tween-80 91 % of control

CC(=O)N1NC2C(=O)N(C3CCCCC3)CC2C1c1ccccc1 (stereo not drawn)
inactive: [12] 93 % of control | [13] 100 % of control | [14] 93 % of control

NCc1ccccc1
inactive: [12] 96 % of control | dose: 100.0 mg/kg/injection, schedule: Q04DX003 (ip), vehicle: acetone 110 % of control | [1] 99 % of control | [13] 100 % of control | dose: 200.0 mg/kg/injection, schedule: Q04DX003 (ip), vehicle: acetone 108 % of control | [2] 99 % of control | [14] 98 % of control | dose: 400.0 mg/kg/injection, schedule: Q04DX003 (ip), vehicle: acetone 97 % of control | [3] 97 % of control

CC1(Br)CS(=O)(=O)CC1(C)Br (stereo not drawn)
inactive: dose: 75.0 mg/kg/injection, schedule: Q01DX001 (ip), vehicle: saline with Tween-80 104 % of control | dose: 150.0 mg/kg/injection, schedule: Q01DX001 (ip), vehicle: saline with Tween-80 98 % of control | dose: 300.0 mg/kg/injection, schedule: Q01DX001 (ip), vehicle: saline with Tween-80 101 % of control

OC1C2CCC(C2)C1C(O)(C(F)(F)Cl)C(F)(F)Cl (stereo not drawn)
inactive: [12] 97 % of control | [13] 91 % of control | [14] 87 % of control
